# Data from patent publication US11365201B2, “Chlorotonil derivatives” (HELMHOLTZ-ZENTRUM FÜR INFEKTIONSFORSCHUNG GMBH, priority 2017, dated 2022).
# Like-named read-outs stand apart in the source and are kept apart here.
# How the values were obtained:
# Plasmodium falciparum = conditions: starting parasitemia levels of 0.01, 0.05, 0.5 and […]; cited from earlier work
# [1] = tested on: P. falciparum 3D7 (sensitive strain); test: Antiplasmodial in vitro drug sensitivity assay (HRP2-ELISA); format: cell-based; conditions: Plasmodium falciparum
# Experimental: (§1) Two laboratory strains of P. falciparum, the chloroquine sensitive 3D7 and the multi-resistant Dd2 were kept in continuous culture as previously described (Trager and Jensen 1976). In brief, parasites were kept in complete culture medium (RPMI 1640, 25 mM HEPES, 2 mM L-glutamine, 50 μg/ml gentamicin and 0.5% w/v AlbuMAX) at 37° C., 5% CO2 and 5% oxygen at 5% hematocrit with daily change of medium. Synchronization was performed with sorbitol twice a week (Lambros and Vanderberg 1979).
# (§2) In Vitro Drug Sensitivity Assay
# (§3) All compounds were dissolved in DMSO at stock dilutions between 25 and 100 mM; the reference drug chloroquine diphosphate (MW: 515.86) was diluted in distilled water and DMSO, respectively. […] Antiplasmodial activity of the different compounds was tested in a drug sensitivity assay against the two laboratory strains using the histidine-rich protein 2 (HRP2) assay as described previously (Noedl 2005). In brief: 96 well plates were pre-coated with the different compounds in a threefold dilution before ring stage parasites were added in complete culture medium at a hematocrit of 1.5% and a parasitemia of 0.05% in a total volume of 225 μl per well. After three days of incubation plates were frozen until analyzed by HRP2-ELISA. All compounds were evaluated in duplicate in at least two independent experiments.
# [2] = tested on: P. falciparum Dd2 (resistant strain); test: as above; format: cell-based; conditions: Plasmodium falciparum
# Experimental: as §1, §2, §3
# S. aureus Newman = test: Antimicrobial assay, MIC by microbroth dilution; format: cell-based; conditions: Staphylococcus aureus, NEWMAN; 16 h, cation-adjusted Muller-Hinton broth
# Experimental: (§4) Bacterial strains used in susceptibility assays (minimum inhibitory concentrations, MIC) were either part of our internal strain collection or were purchased form the German Collection of Microorganisms and Cell Cultures (DSMZ). All compounds were prepared as DMSO stocks and MIC values were determined in standard microbroth dilution assays. Overnight cultures of bacteria were diluted in cation-adjusted Muller-Hinton broth (BBL™, BD) and were adjusted to approximately 10^5 cfu/mL. […] Bacteria were grown in the presence of the derivatives in serial dilution for 16 h at their optimal growth temperature. MIC values were determined according to CLSI guidelines (antibiotic concentration at which no visible bacterial growth is observed).
# Gram-positive bacteria = test: Antimicrobial assay, MIC against a range of Gram-positive bacteria (Table 5); format: cell-based; conditions: read-out: MIC
# Experimental: as §4
# [3] = tested on: zebrafish larvae of the TLF wild type line; test: Zebrafish embryo toxicity, maximum tolerated concentration (MTC), TLF line; format: in vivo; conditions: at five dpf, incubation started at one dpf
# Experimental: (§5) Zebrafish Embryo Toxicity
# (§6) The maximum tolerated concentration (MTC) was determined on zebrafish larvae of the AB wildtype line and the TLF wild type line. Larvae were placed into a 96-well plate (one larva per well) and incubated in a solution at different concentrations (100, 50, 25, 10, 1 μM) of ChA, ChA-Epo2, ChB or ChB-Epo at two days post fertilization (dpf) for AB and in a solution at different concentrations of ChA (100, 50 μM) ChA-Epo2 (25, 10, 1 μM), ChB (100, 50 μM) or ChB-Epo (100, 50, 25 μM) at one dpf for TLF. Five zebrafish larvae were used per condition. The incubated embryos were kept in compound solutions at 28° C. until five dpf and monitored daily by microscopy. The final MTC result was recorded at five dpf. Compound solutions were prepared in the larvae medium Danieau's. Additionally a solution of 0.5% DMSO in Danieau's was used as vehicle control and Danieau's alone as a negative control.
# [4] = tested on: zebrafish larvae of the AB wildtype line; test: Zebrafish embryo toxicity, maximum tolerated concentration (MTC), AB line; format: in vivo; conditions: for Observations noted on fish larvae / MTC (maximum tolerated concentration): AB line, at five dpf, incubation started at two dpf
# Experimental: as §5, §6
# [5] = Determination of water solubility, Method 1 (suspension in tap water, weighing); format: physicochemical; conditions: thermodynamic from solid, room temperature, 18 h stirring, triplicates
# Experimental: (§7) Determination of Water Solubility
# 10 mg of compound was suspended in 1 L of tap water and the solution was stirred at room temperature for 18 h. Upon completion, solution was sonicated for another hour, centrifuged and the supernatant was separated from the precipitate. Both aliquots were lyophilized, and weighed. This procedure was performed in triplicates.
# B. subtilis DSM-10 = test: Antimicrobial assay, MIC by microbroth dilution; format: cell-based; conditions: Bacillus subtilis, DSM10; 16 h, cation-adjusted Muller-Hinton broth
# Experimental: as §4
# C. glutamicum DSM-20300 = test: Antimicrobial assay, MIC by microbroth dilution; format: cell-based; conditions: Corynebacterium glutamicum, DSM20300; 16 h, cation-adjusted Muller-Hinton broth
# Experimental: as §4
# [6] = tested on: L-929 (murine fibroblasts); test: Cytotoxicity assay (MTT, 5 d); format: cell-based; conditions: Mus musculus, L929, 120 h
# Experimental: Cytotoxicity Assay The murine fibroblast cell line L-929 was obtained from the German Collection of Microorganisms and Cell Cultures (DSMZ) and maintained under conditions recommended by the depositor. Cells were seeded at 6×10^3 cells per well of sterile 96-well plates in 180 μL complete medium and treated with the compounds in serial dilution after 2 h of equilibration. After 5 d, viability was assessed by the MTT method. After 1.5 h incubation with 0.5 mg/mL MTT reagent, cells were washed with PBS and 100 μL of 2-propanol/10 N HCl (250:1) was added. The absorbance at 570 nm was determined on a microplate reader and cell viability was expressed as percentage relative to the respective solvent control. Half-inhibitory concentrations (IC50) were determined by sigmoidal curve fitting.
# [7] = Determination of water solubility, Method 2 (HPLC-MS standard curve, saturated solution in water); format: physicochemical; conditions: for solubility: thermodynamic from solid, saturated solution in water, HPLC-MS standard curve
# Experimental: as §7
# A standard curve with 10 calibration points of the compound of interest is plotted using HPLC-MS and serial dilution. The dilutions and stock solutions were prepared in THF as a solvent. Following the measurements, a saturated solution in water of the compound in study was also measured. Upon plotting the standard curve using the peak areas of the MS peaks, the water samples were plotted along the curve and the solubility was then calculated.
# E. coli TolC (+PMBN) = test: Antimicrobial assay, MIC by microbroth dilution with PMBN; format: cell-based; conditions: 16 h, 3 μg/mL polymyxin B nonapeptide (PMBN) added
# Experimental: Bacterial strains used in susceptibility assays (minimum inhibitory concentrations, MIC) were either part of our internal strain collection or were purchased form the German Collection of Microorganisms and Cell Cultures (DSMZ). All compounds were prepared as DMSO stocks and MIC values were determined in standard microbroth dilution assays. Overnight cultures of bacteria were diluted in cation-adjusted Muller-Hinton broth (BBL™, BD) and were adjusted to approximately 10^5 cfu/mL. For the E. coli culture, 3 μg/mL of polymyxin B nonapeptide (PMBN) was added to increase permeability of the outer membrane as chlorotonils were previously shown to not penetrate into Gram-negative cells. Bacteria were grown in the presence of the derivatives in serial dilution for 16 h at their optimal growth temperature. MIC values were determined according to CLSI guidelines (antibiotic concentration at which no visible bacterial growth is observed).
# [8] = P. falciparum 3D7 (sensitive strain), read-out: IC50 against P. falciparum 3D7
# [9] = P. falciparum Dd2 (resistant strain), read-out: IC50 against P. falciparum Dd2
# [10] = Enterococcus faecalis, E. faecalis 20478
# [11] = Enterococcus faecalis, E. faecalis 29212
# [12] = Enterococcus faecium, E. faecium 20477
# [13] = Enterococcus faecium, VRE, E. faecium 17050 (VRE)
# [14] = Mycolicibacterium smegmatis, M. smegmatis
# [15] = Priestia megaterium, B. megaterium
# [16] = Staphylococcus epidermidis, S. epidermidis 28765
# [17] = Streptococcus pneumoniae, PRSP, S. pneumoniae 11865 (PRSP)
# [18] = Streptococcus pneumoniae, S. pneumoniae 20566
compound,measurement,setting,value
"CCN(CC)CCCC(C)Nc1ccnc2cc(Cl)ccc12 (stereo not shown) [Chloroquine, reference compound]",Inoculum effect: difference in IC50 between lowest and highest parasitemia,Plasmodium falciparum,5.6 fold
same,IC50,"[1]; 3D7, read-out: IC50 against P. falciparum 3D7",7.4 nM
same,IC50,"[2]; DD2, read-out: IC50 against P. falciparum Dd2",292 nM
C[C@H]1[C@H](OC(=O)CCC(=O)O)O[C@@H]2O[C@@]3(C)CC[C@H]4[C@H](C)CC[C@@H]1[C@@]24OO3 [artesunate],Inoculum effect: difference in IC50 between lowest and highest parasitemia,Plasmodium falciparum,8.8 fold
C[C@@H]1C(=O)O[C@@H](C)/C=C/C=C\[C@@H](C)[C@@H]2C=C[C@@H]3C[C@@]4(C)O[C@H]4[C@@H](C)C3C2/C(O)=C(\Cl)C1=O (stereo partly shown) [ChB-Epo],IC50,[1]; [8],158 nM
same,IC50,[2]; [9],182 nM
same,MIC,S. aureus Newman,0.05 µg/mL
same,MIC,Gram-positive bacteria; [10],3.2 µg/mL
same,MIC,Gram-positive bacteria; [11],> 3.2 µg/mL
same,MIC,Gram-positive bacteria; [12],> 3.2 µg/mL
same,MIC,Gram-positive bacteria; [13],3.2 µg/mL
same,MIC,"Gram-positive bacteria; Micrococcus luteus, M. luteus",0.1 µg/mL
same,MIC,Gram-positive bacteria; [14],> 3.2 µg/mL
same,MIC,Gram-positive bacteria; [15],0.05 µg/mL
same,MIC,Gram-positive bacteria; [16],0.8 µg/mL
same,MIC,Gram-positive bacteria; [17],> 32 µg/mL
same,MIC,Gram-positive bacteria; [18],0.8 µg/mL
same,Observations noted on fish larvae,[3]; 50 μM,slight tail malformation
same,Observations noted on fish larvae,[3]; 100 μM,tail malformation
same,MTC (maximum tolerated concentration),[3],25 µM
same,Observations noted on fish larvae,[4]; 50 μM,died
same,Observations noted on fish larvae,[4]; 100 μM,died
same,MTC (maximum tolerated concentration),[4],25 µM
same,"Toxicity in zebrafish (MTC), comparison of the epoxide derivatives","[4]; zebrafish, line not named in the sentence (Tables 6 and 7)",less toxic than the chlorotonil A derivative
C[C@@H]1C(=O)O[C@@H](C)/C=C/C=C\[C@@H](C)[C@@H]2C=C[C@@H]3C[C@@](C)(O)[C@H](Cl)[C@@H](C)[C@H]3[C@@H]2C(=O)C(Cl)(Cl)C1=O [ChA-Epo2-Cl],solubility at 18 h,[5],280 µg/mL
same,IC50,[1]; [8],38.7 nM
same,IC50,[2]; [9],45.9 nM
same,MIC,B. subtilis DSM-10,0.1 µg/mL
same,MIC,S. aureus Newman,0.05 µg/mL
same,MIC,C. glutamicum DSM-20300,0.4 µg/mL
same,IC50,[6],4200 nM
same,solubility,[7],320 µg/mL
same,MIC E. coli TolC (+PMBN),E. coli TolC (+PMBN),0.8 µg/mL
C[C@@H]1C(=O)O[C@@H](C)/C=C/C=C\[C@@H](C)[C@@H]2C=C[C@@H]3C[C@@]4(C)O[C@H]4[C@@H](C)[C@H]3[C@@H]2C(=O)C(Cl)(Cl)C1=O [ChA-Epo2],solubility at 18 h,[5],14 µg/mL
same,IC50,[1]; [8],51.3 nM
same,IC50,[2]; [9],87.1 nM
same,MIC,B. subtilis DSM-10,0.025 µg/mL
same,MIC,S. aureus Newman,0.025 µg/mL
same,MIC,C. glutamicum DSM-20300,0.05 µg/mL
same,MIC,Gram-positive bacteria; [10],0.8 µg/mL
same,MIC,Gram-positive bacteria; [11],1.6 µg/mL
same,MIC,Gram-positive bacteria; [12],3.2 µg/mL
same,MIC,Gram-positive bacteria; [13],0.4 µg/mL
same,MIC,"Gram-positive bacteria; Micrococcus luteus, M. luteus",0.025 µg/mL
same,MIC,Gram-positive bacteria; [14],0.003 µg/mL
same,MIC,Gram-positive bacteria; [15],0.00125 µg/mL
same,MIC,Gram-positive bacteria; [16],0.2 µg/mL
same,MIC,Gram-positive bacteria; [17],8 µg/mL
same,MIC,Gram-positive bacteria; [18],0.2 µg/mL
same,Observations noted on fish larvae,[3]; 10 μM,4 delayed in development
same,Observations noted on fish larvae,[3]; 25 μM,"1 died, 4 delayed in"
same,MTC (maximum tolerated concentration),[3],1 µM
same,IC50,[6],2100 nM
same,solubility,[7],10.3 µg/mL
same,Observations noted on fish larvae,[4]; 10 μM,died
same,Observations noted on fish larvae,[4]; 25 μM,died
same,Observations noted on fish larvae,[4]; 50 μM,died
same,Observations noted on fish larvae,[4]; 100 μM,died
same,MTC (maximum tolerated concentration),[4],1 µM
same,MIC E. coli TolC (+PMBN),E. coli TolC (+PMBN),0.1 µg/mL
C[C@@H]1C(=O)O[C@@H](C)/C=C/C=C\[C@@H](C)[C@@H]2C=C[C@@H]3C[C@@](C)(O)[C@H](O[N+](=O)[O-])[C@@H](C)[C@H]3[C@@H]2C(=O)C(Cl)(Cl)C1=O [ChA-Epo2-ONO2],solubility at 18 h,[5],310 µg/mL
same,IC50,[1]; [8],0.92 nM
same,IC50,[2]; [9],2.2 nM
same,MIC,B. subtilis DSM-10,0.025 µg/mL
same,MIC,S. aureus Newman,0.025 µg/mL
same,MIC,C. glutamicum DSM-20300,0.1 µg/mL
same,solubility,[7],380 µg/mL
same,MIC E. coli TolC (+PMBN),E. coli TolC (+PMBN),0.1 µg/mL
C[C@@H]1C(=O)O[C@@H](C)/C=C/C=C\[C@@H](C)[C@@H]2C=C[C@]3(C)C[C@]4(C)O[C@@H]4[C@@H](C)[C@H]3[C@@H]2C(=O)C(Cl)(Cl)C1=O [ChA-Epo1],IC50,[1]; [8],96.5 nM
same,IC50,[2]; [9],229 nM
same,MIC,B. subtilis DSM-10,3.2 µg/mL
same,MIC,S. aureus Newman,3.2 µg/mL
same,MIC,C. glutamicum DSM-20300,> 3.2 µg/mL
same,IC50,[6],10300 nM
same,MIC E. coli TolC (+PMBN),E. coli TolC (+PMBN),>3.2 µg/mL
"CC1=C[C@@H](C)[C@H]2[C@@H]3C(=O)C(Cl)(Cl)C(=O)[C@H](C)C(=O)O[C@@H](C)/C=C/C=C\[C@@H](C)[C@@H]3C=C[C@@H]2C1 [Chlorotonil A (ChA), Chlorotonil A, reference compound]",water solubility,"[7]; summary of Table 1, method not given",less than 2 μg/mL
